Data reported in the supplement of paper PMC12463676, “Small-molecule dissolution of stress granules by redox modulation benefits ALS models” (Nature Chemical Biology, 2025).

Assays:
lipoamide = compound: NC(=O)CCCCC1CCSS1 [lipoamide]; test: thermal stability z-score vs DMSO; higher = more thermally stabilized by treatment; settings: HeLa, lipoamide concentration 100 µM
Description: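 Cellular thermal proteome profiling in HeLa cells. Cells were treated with 100 µM lipoamide for 1 h, with or without 1 mM arsenate for a further 1 h, then heated to ten temperatures (37-66.3 °C), and soluble protein was quantified by TMT mass spectrometry relative to 0.1% DMSO controls. The thermal stability score (sum of log2 fold changes minus the abundance score) was transformed to a z-score; mean of n = 3 experiments.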

potassium arsenate = compound: O=[As]([O-])(O)O.[K+] [potassium arsenate]; test: as above; settings: HeLa; arsenate concentration 1 mM
Description: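 Cellular thermal proteome profiling in HeLa cells treated with 1 mM arsenate for 1 h (DMSO pretreatment), heated to ten temperatures (37-66.3 °C). Soluble protein was quantified by TMT mass spectrometry relative to DMSO controls; the thermal stability score was transformed to a z-score; mean of n = 3 experiments.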

[1] = arsenate co-treatment: 1 mM arsenate 1 h
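Note: each temperature applied for 3 min, abundance score taken as mean log2 fold change at the two lowest temperatures, z-score obtained by mean subtraction and division by SD.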

Sequence of UniProt O60499 (O60499 whole entry): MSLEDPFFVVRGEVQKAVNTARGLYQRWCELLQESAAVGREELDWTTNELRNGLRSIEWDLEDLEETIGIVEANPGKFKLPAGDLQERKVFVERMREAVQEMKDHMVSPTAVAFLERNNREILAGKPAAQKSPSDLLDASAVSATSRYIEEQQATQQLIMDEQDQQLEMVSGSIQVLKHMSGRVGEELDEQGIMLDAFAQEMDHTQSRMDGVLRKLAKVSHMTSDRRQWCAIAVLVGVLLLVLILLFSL
Sequence of UniProt Q8NBJ7 (Q8NBJ7 whole entry): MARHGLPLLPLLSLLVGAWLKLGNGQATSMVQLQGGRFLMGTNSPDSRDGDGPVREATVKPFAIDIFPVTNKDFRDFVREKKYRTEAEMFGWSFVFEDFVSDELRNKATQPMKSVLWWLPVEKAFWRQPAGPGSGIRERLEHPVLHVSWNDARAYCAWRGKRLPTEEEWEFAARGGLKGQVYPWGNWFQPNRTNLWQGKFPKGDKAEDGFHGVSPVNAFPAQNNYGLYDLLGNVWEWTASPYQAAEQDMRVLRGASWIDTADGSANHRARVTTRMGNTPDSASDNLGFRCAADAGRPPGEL
Sequence of UniProt P53597 (P53597 whole entry): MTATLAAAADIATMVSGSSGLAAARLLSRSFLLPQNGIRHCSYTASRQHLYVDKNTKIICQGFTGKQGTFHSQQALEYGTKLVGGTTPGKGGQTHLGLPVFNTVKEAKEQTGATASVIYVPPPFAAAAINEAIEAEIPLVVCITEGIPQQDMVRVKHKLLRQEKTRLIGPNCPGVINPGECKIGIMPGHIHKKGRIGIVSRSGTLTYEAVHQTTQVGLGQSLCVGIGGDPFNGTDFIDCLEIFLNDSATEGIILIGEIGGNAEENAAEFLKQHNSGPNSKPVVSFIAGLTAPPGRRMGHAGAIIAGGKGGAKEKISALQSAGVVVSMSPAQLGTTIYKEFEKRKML
Sequence of UniProt Q9P2R7 (Q9P2R7 whole entry): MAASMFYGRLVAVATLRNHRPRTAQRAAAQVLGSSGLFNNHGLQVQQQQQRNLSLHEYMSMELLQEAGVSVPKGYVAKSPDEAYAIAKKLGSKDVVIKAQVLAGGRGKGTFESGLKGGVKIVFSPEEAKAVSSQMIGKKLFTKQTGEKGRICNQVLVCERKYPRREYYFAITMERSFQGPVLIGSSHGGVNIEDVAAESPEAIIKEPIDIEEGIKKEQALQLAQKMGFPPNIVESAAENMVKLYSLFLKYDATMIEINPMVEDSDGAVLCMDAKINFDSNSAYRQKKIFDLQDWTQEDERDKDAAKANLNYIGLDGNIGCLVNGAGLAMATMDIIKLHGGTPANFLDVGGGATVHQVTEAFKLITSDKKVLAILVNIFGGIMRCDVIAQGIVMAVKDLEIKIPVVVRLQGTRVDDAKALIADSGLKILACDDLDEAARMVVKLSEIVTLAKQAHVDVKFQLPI
Sequence of UniProt P61764 (P61764 whole entry): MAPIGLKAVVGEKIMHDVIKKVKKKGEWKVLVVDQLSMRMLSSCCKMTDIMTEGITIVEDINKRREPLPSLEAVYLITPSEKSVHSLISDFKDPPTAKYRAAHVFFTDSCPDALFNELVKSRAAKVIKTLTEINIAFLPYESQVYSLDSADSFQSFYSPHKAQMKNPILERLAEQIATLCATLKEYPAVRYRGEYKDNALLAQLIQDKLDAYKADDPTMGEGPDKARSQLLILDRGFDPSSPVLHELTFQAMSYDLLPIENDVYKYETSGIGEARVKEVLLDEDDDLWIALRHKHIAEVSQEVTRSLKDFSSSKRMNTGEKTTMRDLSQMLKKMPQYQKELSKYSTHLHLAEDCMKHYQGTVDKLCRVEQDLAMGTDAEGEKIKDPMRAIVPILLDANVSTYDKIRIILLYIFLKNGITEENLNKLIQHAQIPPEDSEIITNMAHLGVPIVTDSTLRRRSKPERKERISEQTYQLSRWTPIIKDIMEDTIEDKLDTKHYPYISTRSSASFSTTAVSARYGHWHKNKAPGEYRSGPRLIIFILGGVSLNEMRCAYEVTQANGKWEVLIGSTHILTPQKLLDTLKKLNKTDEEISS
Sequence of UniProt Q9NRL3 (Q9NRL3 whole entry): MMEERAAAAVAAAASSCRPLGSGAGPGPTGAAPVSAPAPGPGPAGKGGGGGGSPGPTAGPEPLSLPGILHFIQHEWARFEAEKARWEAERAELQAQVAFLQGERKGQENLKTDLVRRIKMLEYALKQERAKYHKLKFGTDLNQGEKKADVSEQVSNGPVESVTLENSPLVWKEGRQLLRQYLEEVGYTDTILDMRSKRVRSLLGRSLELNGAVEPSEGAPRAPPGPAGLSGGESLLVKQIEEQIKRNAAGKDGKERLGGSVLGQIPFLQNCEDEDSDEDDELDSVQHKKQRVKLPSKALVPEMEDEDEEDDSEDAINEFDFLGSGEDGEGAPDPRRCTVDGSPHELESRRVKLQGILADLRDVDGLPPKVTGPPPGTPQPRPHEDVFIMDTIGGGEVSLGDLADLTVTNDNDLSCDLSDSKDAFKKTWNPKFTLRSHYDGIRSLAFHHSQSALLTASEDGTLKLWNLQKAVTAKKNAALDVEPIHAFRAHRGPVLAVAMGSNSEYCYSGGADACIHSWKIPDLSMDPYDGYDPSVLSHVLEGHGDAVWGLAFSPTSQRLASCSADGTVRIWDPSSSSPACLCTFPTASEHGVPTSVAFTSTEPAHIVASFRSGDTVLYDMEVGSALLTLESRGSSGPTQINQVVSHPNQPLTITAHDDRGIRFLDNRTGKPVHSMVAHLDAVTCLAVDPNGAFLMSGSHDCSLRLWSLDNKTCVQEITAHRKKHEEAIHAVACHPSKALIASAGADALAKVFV
Sequence of UniProt Q6ZWJ1 (Q6ZWJ1 whole entry): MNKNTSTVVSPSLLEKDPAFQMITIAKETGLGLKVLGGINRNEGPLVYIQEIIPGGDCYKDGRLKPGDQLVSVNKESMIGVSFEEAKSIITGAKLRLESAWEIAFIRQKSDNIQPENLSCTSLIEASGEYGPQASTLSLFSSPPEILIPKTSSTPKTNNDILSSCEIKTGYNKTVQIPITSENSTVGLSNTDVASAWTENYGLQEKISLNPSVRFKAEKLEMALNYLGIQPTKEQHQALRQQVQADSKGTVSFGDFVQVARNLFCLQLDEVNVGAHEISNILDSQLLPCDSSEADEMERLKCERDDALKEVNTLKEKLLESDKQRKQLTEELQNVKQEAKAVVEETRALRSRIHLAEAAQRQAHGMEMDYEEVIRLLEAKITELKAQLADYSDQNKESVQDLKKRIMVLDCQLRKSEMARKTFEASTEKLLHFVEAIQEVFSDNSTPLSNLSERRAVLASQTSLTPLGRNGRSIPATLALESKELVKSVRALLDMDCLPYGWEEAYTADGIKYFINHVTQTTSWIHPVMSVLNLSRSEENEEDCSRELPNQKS
Sequence of UniProt O15400 (O15400 whole entry): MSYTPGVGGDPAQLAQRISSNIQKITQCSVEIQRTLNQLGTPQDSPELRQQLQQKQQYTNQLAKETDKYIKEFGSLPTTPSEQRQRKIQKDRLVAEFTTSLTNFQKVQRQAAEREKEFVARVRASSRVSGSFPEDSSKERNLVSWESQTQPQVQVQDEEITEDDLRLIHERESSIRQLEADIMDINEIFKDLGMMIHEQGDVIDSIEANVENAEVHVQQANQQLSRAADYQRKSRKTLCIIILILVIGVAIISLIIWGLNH
Sequence of UniProt O43752 (O43752 whole entry): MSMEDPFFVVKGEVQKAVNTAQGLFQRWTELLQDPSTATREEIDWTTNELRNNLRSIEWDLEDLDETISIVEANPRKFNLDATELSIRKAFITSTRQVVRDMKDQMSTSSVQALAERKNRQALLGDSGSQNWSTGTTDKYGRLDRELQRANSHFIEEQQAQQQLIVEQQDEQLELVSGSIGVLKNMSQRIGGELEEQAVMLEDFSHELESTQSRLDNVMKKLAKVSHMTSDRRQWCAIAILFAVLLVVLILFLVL
Sequence of UniProt P51687 (P51687 whole entry): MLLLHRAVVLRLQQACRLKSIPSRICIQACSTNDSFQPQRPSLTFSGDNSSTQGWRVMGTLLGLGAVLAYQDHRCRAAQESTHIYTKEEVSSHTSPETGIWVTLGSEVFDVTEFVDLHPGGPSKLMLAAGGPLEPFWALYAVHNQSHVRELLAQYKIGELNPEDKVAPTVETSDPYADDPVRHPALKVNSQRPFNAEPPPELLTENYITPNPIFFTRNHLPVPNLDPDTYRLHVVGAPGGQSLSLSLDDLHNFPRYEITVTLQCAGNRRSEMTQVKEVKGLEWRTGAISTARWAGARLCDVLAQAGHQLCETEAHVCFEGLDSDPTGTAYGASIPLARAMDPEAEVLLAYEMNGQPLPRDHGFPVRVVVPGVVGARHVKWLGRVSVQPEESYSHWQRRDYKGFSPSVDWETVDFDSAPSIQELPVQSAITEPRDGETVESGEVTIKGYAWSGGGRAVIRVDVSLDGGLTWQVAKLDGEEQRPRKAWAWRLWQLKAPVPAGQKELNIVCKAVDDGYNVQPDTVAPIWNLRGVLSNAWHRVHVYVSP
Sequence of UniProt Q15833 (Q15833 whole entry): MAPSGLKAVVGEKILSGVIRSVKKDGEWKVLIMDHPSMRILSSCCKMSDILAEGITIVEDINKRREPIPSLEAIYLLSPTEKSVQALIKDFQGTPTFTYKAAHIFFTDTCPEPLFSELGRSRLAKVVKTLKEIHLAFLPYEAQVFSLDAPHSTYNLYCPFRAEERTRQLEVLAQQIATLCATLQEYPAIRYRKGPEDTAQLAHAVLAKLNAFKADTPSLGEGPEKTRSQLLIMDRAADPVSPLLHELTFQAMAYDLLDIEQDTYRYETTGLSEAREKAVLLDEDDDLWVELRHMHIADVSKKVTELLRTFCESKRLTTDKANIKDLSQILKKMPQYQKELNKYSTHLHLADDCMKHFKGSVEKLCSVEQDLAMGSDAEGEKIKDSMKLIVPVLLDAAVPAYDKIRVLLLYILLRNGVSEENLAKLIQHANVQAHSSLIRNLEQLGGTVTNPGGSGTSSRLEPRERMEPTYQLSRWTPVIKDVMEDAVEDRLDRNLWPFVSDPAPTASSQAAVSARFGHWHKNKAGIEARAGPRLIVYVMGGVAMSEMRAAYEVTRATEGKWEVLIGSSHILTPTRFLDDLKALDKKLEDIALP

**Q.** Which results are given for STRN4 (UniProt Q9NRL3)?
**A.** thermal stability z-score (lipoamide; [1]): -0.136; thermal stability z-score (lipoamide; arsenate co-treatment: none): 0.198; thermal stability z-score (potassium arsenate): 0.937

**Q.** How did the thermal stability z-score (lipoamide; [1]) turn out when STRN (UniProt O43815) was run?
**A.** 0.402

**Q.** And the thermal stability z-score (lipoamide; arsenate co-treatment: none)?
**A.** 0.602

**Q.** And the thermal stability z-score (potassium arsenate)?
**A.** 0.345

**Q.** STT3A (UniProt P46977) was tested. Which thermal stability z-score (lipoamide; [1]) did it give?
**A.** -2.6

**Q.** And the thermal stability z-score (lipoamide; arsenate co-treatment: none)?
**A.** -1.98

**Q.** What about the thermal stability z-score (potassium arsenate) of the same target?
**A.** -0.218

**Q.** How did the thermal stability z-score (lipoamide; [1]) turn out when STT3B (UniProt Q8TCJ2) was run?
**A.** -3.41

**Q.** What about the thermal stability z-score (lipoamide; arsenate co-treatment: none) of the same target?
**A.** -2.66

**Q.** What about the thermal stability z-score (potassium arsenate) of the same target?
**A.** 0.646

**Q.** How did the thermal stability z-score (lipoamide; [1]) turn out when STUB1 (UniProt Q9UNE7) was run?
**A.** -0.065

**Q.** What about the thermal stability z-score (lipoamide; arsenate co-treatment: none) of the same target?
**A.** -0.23

**Q.** And the thermal stability z-score (potassium arsenate)?
**A.** 0.207

**Q.** Which results are given for STX2 (UniProt P32856)?
**A.** thermal stability z-score (lipoamide; [1]): 0.221; thermal stability z-score (lipoamide; arsenate co-treatment: none): -0.18; thermal stability z-score (potassium arsenate): -0.135

**Q.** For STX3 (UniProt Q13277), which thermal stability z-score (lipoamide; [1]) is on record?
**A.** 0.221

**Q.** What about the thermal stability z-score (lipoamide; arsenate co-treatment: none) of the same target?
**A.** -0.315

**Q.** What about the thermal stability z-score (potassium arsenate) of the same target?
**A.** -0.39

**Q.** Which results are given for STX4 (UniProt Q12846)?
**A.** thermal stability z-score (lipoamide; [1]): 0.741; thermal stability z-score (lipoamide; arsenate co-treatment: none): 0.546; thermal stability z-score (potassium arsenate): -0.199

**Q.** STX5 (UniProt Q13190) was tested. Which thermal stability z-score (lipoamide; [1]) did it give?
**A.** 0.00395

**Q.** What about the thermal stability z-score (lipoamide; arsenate co-treatment: none) of the same target?
**A.** -0.95

**Q.** What about the thermal stability z-score (potassium arsenate) of the same target?
**A.** 0.0014

**Q.** Which results are given for STX6 (UniProt O43752)?
**A.** thermal stability z-score (lipoamide; [1]): -0.996; thermal stability z-score (lipoamide; arsenate co-treatment: none): -0.712; thermal stability z-score (potassium arsenate): -0.486

**Q.** Which thermal stability z-score (lipoamide; [1]) does the source give for STX7 (UniProt O15400) here?
**A.** -0.0553

**Q.** And the thermal stability z-score (lipoamide; arsenate co-treatment: none)?
**A.** 0.417

**Q.** What about the thermal stability z-score (potassium arsenate) of the same target?
**A.** 0.507

**Q.** What does the source list for STX8 (UniProt Q9UNK0)?
**A.** thermal stability z-score (lipoamide; [1]): -0.198; thermal stability z-score (lipoamide; arsenate co-treatment: none): 0.507; thermal stability z-score (potassium arsenate): 0.248

**Q.** For STX10 (UniProt O60499), which thermal stability z-score (lipoamide; [1]) is on record?
**A.** -0.387

**Q.** And the thermal stability z-score (lipoamide; arsenate co-treatment: none)?
**A.** -0.00805

**Q.** And the thermal stability z-score (potassium arsenate)?
**A.** 0.516

**Q.** With STX12 (UniProt Q86Y82) as the target, how does the thermal stability z-score (lipoamide; [1]) read?
**A.** 0.379

**Q.** What about the thermal stability z-score (lipoamide; arsenate co-treatment: none) of the same target?
**A.** 0.716

**Q.** What about the thermal stability z-score (potassium arsenate) of the same target?
**A.** 0.452

**Q.** STX16 (UniProt O14662) was tested. Which thermal stability z-score (lipoamide; [1]) did it give?
**A.** -0.63

**Q.** And the thermal stability z-score (lipoamide; arsenate co-treatment: none)?
**A.** 0.276

**Q.** What about the thermal stability z-score (potassium arsenate) of the same target?
**A.** 0.553

**Q.** What does the source list for STX18 (UniProt Q9P2W9)?
**A.** thermal stability z-score (lipoamide; [1]): 0.00945; thermal stability z-score (lipoamide; arsenate co-treatment: none): 0.0404; thermal stability z-score (potassium arsenate): 0.066

**Q.** Which thermal stability z-score (lipoamide; [1]) does the source give for STXBP1 (UniProt P61764) here?
**A.** -0.206

**Q.** And the thermal stability z-score (lipoamide; arsenate co-treatment: none)?
**A.** 0.0929

**Q.** What about the thermal stability z-score (potassium arsenate) of the same target?
**A.** 0.156

**Q.** What does the source list for STXBP2 (UniProt Q15833)?
**A.** thermal stability z-score (lipoamide; [1]): -0.105; thermal stability z-score (lipoamide; arsenate co-treatment: none): 0.167; thermal stability z-score (potassium arsenate): 0.225

**Q.** How did the thermal stability z-score (lipoamide; [1]) turn out when STXBP3 (UniProt O00186) was run?
**A.** 0.948

**Q.** What about the thermal stability z-score (lipoamide; arsenate co-treatment: none) of the same target?
**A.** 0.942

**Q.** What about the thermal stability z-score (potassium arsenate) of the same target?
**A.** 0.223

**Q.** With STXBP4 (UniProt Q6ZWJ1) as the target, how does the thermal stability z-score (lipoamide; [1]) read?
**A.** -0.119

**Q.** And the thermal stability z-score (lipoamide; arsenate co-treatment: none)?
**A.** 0.0111

**Q.** What about the thermal stability z-score (potassium arsenate) of the same target?
**A.** -0.111

**Q.** Which thermal stability z-score (lipoamide; [1]) does the source give for STXBP5 (UniProt Q5T5C0) here?
**A.** 0.208

**Q.** What about the thermal stability z-score (lipoamide; arsenate co-treatment: none) of the same target?
**A.** 0.496

**Q.** And the thermal stability z-score (potassium arsenate)?
**A.** 1.77

**Q.** SUB1 (UniProt P53999) was tested. Which thermal stability z-score (lipoamide; [1]) did it give?
**A.** 0.206

**Q.** What about the thermal stability z-score (lipoamide; arsenate co-treatment: none) of the same target?
**A.** 0.0783

**Q.** What about the thermal stability z-score (potassium arsenate) of the same target?
**A.** 0.0838

**Q.** With SUCLA2 (UniProt Q9P2R7) as the target, how does the thermal stability z-score (lipoamide; [1]) read?
**A.** 0.0341

**Q.** And the thermal stability z-score (lipoamide; arsenate co-treatment: none)?
**A.** 0.0719

**Q.** What about the thermal stability z-score (potassium arsenate) of the same target?
**A.** -0.411

**Q.** What does the source list for SUCLG1 (UniProt P53597)?
**A.** thermal stability z-score (lipoamide; [1]): 0.0617; thermal stability z-score (lipoamide; arsenate co-treatment: none): 0.192; thermal stability z-score (potassium arsenate): 0.206

**Q.** SUCLG2 (UniProt Q96I99) was tested. Which thermal stability z-score (lipoamide; [1]) did it give?
**A.** 0.0359

**Q.** And the thermal stability z-score (lipoamide; arsenate co-treatment: none)?
**A.** 0.172

**Q.** What about the thermal stability z-score (potassium arsenate) of the same target?
**A.** 0.106

**Q.** What does the source list for SUGP1 (UniProt Q8IWZ8)?
**A.** thermal stability z-score (lipoamide; [1]): 0.164; thermal stability z-score (lipoamide; arsenate co-treatment: none): -0.049; thermal stability z-score (potassium arsenate): 0.928

**Q.** Which results are given for SUGT1 (UniProt Q9Y2Z0)?
**A.** thermal stability z-score (lipoamide; [1]): 0.611; thermal stability z-score (lipoamide; arsenate co-treatment: none): 0.585; thermal stability z-score (potassium arsenate): 0.388

**Q.** SULT1A4|SULT1A3 was tested. Which thermal stability z-score (lipoamide; [1]) did it give?
**A.** -0.787

**Q.** What about the thermal stability z-score (lipoamide; arsenate co-treatment: none) of the same target?
**A.** 0.186

**Q.** What about the thermal stability z-score (potassium arsenate) of the same target?
**A.** 1.16

**Q.** With SUMF1 (UniProt Q8NBK3) as the target, how does the thermal stability z-score (lipoamide; [1]) read?
**A.** -1

**Q.** And the thermal stability z-score (lipoamide; arsenate co-treatment: none)?
**A.** -0.419

**Q.** What about the thermal stability z-score (potassium arsenate) of the same target?
**A.** -0.194

**Q.** What does the source list for SUMF2 (UniProt Q8NBJ7)?
**A.** thermal stability z-score (lipoamide; [1]): -3.47; thermal stability z-score (lipoamide; arsenate co-treatment: none): -2.99; thermal stability z-score (potassium arsenate): 0.544

**Q.** For SUMO1 (UniProt P63165), which thermal stability z-score (lipoamide; [1]) is on record?
**A.** -0.294

**Q.** And the thermal stability z-score (lipoamide; arsenate co-treatment: none)?
**A.** -0.0784

**Q.** And the thermal stability z-score (potassium arsenate)?
**A.** 1.09

**Q.** SUMO2 (UniProt P61956) was tested. Which thermal stability z-score (lipoamide; [1]) did it give?
**A.** 1.1

**Q.** What about the thermal stability z-score (lipoamide; arsenate co-treatment: none) of the same target?
**A.** 1.59

**Q.** And the thermal stability z-score (potassium arsenate)?
**A.** 0.306

**Q.** Which results are given for SUN2 (UniProt Q9UH99)?
**A.** thermal stability z-score (lipoamide; [1]): -1.43; thermal stability z-score (lipoamide; arsenate co-treatment: none): -1.36; thermal stability z-score (potassium arsenate): -0.0506

**Q.** Which thermal stability z-score (lipoamide; [1]) does the source give for SUOX (UniProt P51687) here?
**A.** -0.266

**Q.** And the thermal stability z-score (lipoamide; arsenate co-treatment: none)?
**A.** -0.279

**Q.** And the thermal stability z-score (potassium arsenate)?
**A.** 0.168

**Q.** What does the source list for SUPT4H1 (UniProt P63272)?
**A.** thermal stability z-score (lipoamide; [1]): -0.0276; thermal stability z-score (lipoamide; arsenate co-treatment: none): -0.173; thermal stability z-score (potassium arsenate): -0.164
